Literature values, collected in patent US9540691B2, “Assays and methods for selecting a treatment regimen for a subject with depression” (THE GENERAL HOSPITAL CORPORATION, priority 2011, dated 2017).
Where two headings read alike, the source gives them in different places.

System: adults with DSM-IV MDD, partial or nonresponse to an SSRI
Settings: cited from earlier work

SMILES: Nc1nc(=O)c2c([nH]1)NCC(CNc1ccc(C(=O)N[C@@H](CCC(=O)O)C(=O)O)cc1)N2C=O (mixture of isomers) [Folinic acid]
- HAM-D-17 score after treatment (16 completers, decreased from 19.1+/−3.9, p<0.01): 12.8+/−7.0
- remission (HAM-D-17 no greater than 7) (ITT sample): 18%
- remission (HAM-D-17 no greater than 7) (completers): 19%
- response (at least 50% reduction in HAM-D-17) (completers): 31%
- Folate levels after treatment (folinic acid 15-30 mg/day added to SSRIs, 8 weeks, rose from 28+/−19, p<0.001): 301 ± 203 ng/mL
- response (at least 50% reduction in HAM-D-17) (intent-to-treat (ITT) sample): 27%
